This note sets out measurements from patent publication US20250099400A1, “TERPENES FOR USE IN MODULATION OF A PHY[…]” (BUZZELET DEVELOPMENT AND TECHNOLOGIES LTD., priority 2022, published 2025).

In brackets after ≈: the same amount, converted by molar mass.

One data set deals with T1, CB1 receptor (Homo sapiens, UniProt P21554).
T1 construct: expressed in transfected cells; host or cells: Xenopus laevis oocytes injected with in vitro transcribed cRNA
T1 sequence (P21554 whole entry): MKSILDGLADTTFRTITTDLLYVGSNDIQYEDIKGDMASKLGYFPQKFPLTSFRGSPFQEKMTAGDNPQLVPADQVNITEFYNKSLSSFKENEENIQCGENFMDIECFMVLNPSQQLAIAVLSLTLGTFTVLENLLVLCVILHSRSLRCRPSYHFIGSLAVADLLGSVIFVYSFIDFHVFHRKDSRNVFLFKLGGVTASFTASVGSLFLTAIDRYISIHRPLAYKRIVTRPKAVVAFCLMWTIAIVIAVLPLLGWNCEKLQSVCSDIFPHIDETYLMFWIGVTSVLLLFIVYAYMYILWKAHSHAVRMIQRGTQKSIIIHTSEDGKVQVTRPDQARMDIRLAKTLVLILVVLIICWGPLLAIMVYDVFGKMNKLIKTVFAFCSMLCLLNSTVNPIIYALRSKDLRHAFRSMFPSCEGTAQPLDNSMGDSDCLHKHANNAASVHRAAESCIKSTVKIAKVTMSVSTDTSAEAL
Briefly: CB1 receptor-activated GIRK currents in Xenopus oocytes (two-electrode voltage clamp). The class given is cell-based. To be noted: THC concentrations each supplemented with terpene at a weight/weight ratio of 1/10, compared with THC alone. The method, then:
cDNA plasmids of the two subunits of the G protein-activated inwardly rectifying K^+ channel (GIRK) (GIRK1 and GIRK2), the CB1 receptor, the CB2 receptor, and the α subunit of the G-protein (Gαi3) were linearized with the appropriate restriction enzymes. The linearized plasmids were transcribed in vitro using a standard procedure.
Oocytes were isolated from female adult X. laevis anesthetized (with 1 g/L MS-222) and incubated in NDE96 solution composed of ND96 (in mM: 96 NaCl, 2 KCl, 1 CaCl2, 1 MgCl2, 5 Hepes, with pH adjusted to 7.5 with NaOH) with the addition of 2.5 mM Na^+ pyruvate, 100 units/ml penicillin, and 100 μg/ml streptomycin (16). The isolated oocytes were injected with the relevant cRNAs: cRNAs of CB1 receptor and CB2 receptor (2 ng) and GIRK1 and GIRK2 (200 pg each) were injected. In addition, cRNA of Gαi3 (1000 pg) was injected to decrease the basal GIRK current (IK) and to improve the relative activation by the agonist.
Currents were measured 3-5 days after cRNA injection and were recorded using the standard two-electrode voltage clamp technique (Axoclamp 2B amplifier, Axon Instruments, Foster City, CA).
Each oocyte was placed in a recording bath containing ND96 solution and was impaled with two electrodes pulled from 1.5-mm Clark capillaries (Warner instruments, Hamden, CT). Both electrodes were filled with a 3M KCI solution and the electrode resistance was between 1 and 5 MΩ. The CB1 receptor-mediated GIRK and the CB2 receptor-mediated GIRK currents were measured in 24 mM K^+ solution (in mM: 72 NaCl, 24 KCl, 1 CaCl2, 1 MgCl2, 5 Hepes, with pH adjusted to 7.5 with KOH). Ba^+2 (1 mM) was used to block the currents in order to verify that the measured currents were indeed mediated by GIRK channels.
The dose response curves were fitted by equation 1:
Y=Bottom+X*(Top-Bottom)/(EC50+X), (1)
The responses evoked in the same oocyte by either THC and\or terpenes measurements, were normalized to this reference value.
The Xenopus oocytes functional expression system was used to test the possibility that the presence of various terpenes affects the activation of the CB1 receptor, as depicted schematically in FIG. 1A. To this end, Xenopus oocytes were injected with cRNAs of proteins involved in the pathway leading to activation of K^+ currents by CB1 receptor via βγ subunits of the G-proteins: The CB1 receptor, the two subunits of the GIRK channel (GIRK1 and GIRK2), and the Gαi3 subunit.
First, the dependence of THC-induced K^+ current (ITHC) on THC concentration (dose-response, DR) was measured. The oocyte was voltage-clamped to −80 mV in a low K^+ (2 mM K^+) solution, ND96. Basal GIRK current (IK) was developed upon replacement of the ND96 by the 24 mM K^+solution. This current represents the basal activation of GIRK channel by endogenous By subunits present in the oocytes. Then, five different concentrations of THC were applied sequentially in ascending order giving rise to ITHC. This current was terminated upon washout of THC. Employing this basic experimental protocol, a full DR curve was constructed.
In order to compare between oocytes, ITHC at any particular THC concentration was normalized to ITHC obtained at a 10 μM THC, defined as the reference response, at this same oocyte.
In the case of `C=CC(C)(O)CCC=C(C)C` (racemic) [linalool], the “effect of terpene addition on the potency of THC in CB1 receptor activation” value (from here on “effect of terpene addition”) is “significantly enhances the potency of THC”. `C=C1CCC2CC1C2(C)C` (stereo not drawn) [beta pinene, β-pinene]: the “effect of terpene addition” value is “significantly enhances the potency of THC”. The same measure, in the same setting: under `CC1(C)C2CCC1(C)C(O)C2` (stereo not drawn) [borneol] stands “significantly enhances the potency of THC”. Consider `CC(C)=CCC/C(C)=C/CO` [geraniol], for which the “effect of terpene addition” value is recorded as “significantly enhances the potency of THC”.

As to `C=C(C)[C@H]1CC=C(C)CC1` [limonene, limonene-D], the “effect of terpene addition” value is recorded as “significantly enhances the potency of THC”. Turning to `C=CC(C)=CCC=C(C)C` [ocimene], the “effect of terpene addition” value is reported as “significantly enhances the potency of THC”.

In the case of `C=C1CCC2(C(C)C)CC12` (stereo not drawn) [sabinene], the “effect of terpene addition” value is “significantly enhances the potency of THC”.

Test system in a further data set: not listed separately
In words: Solubility in the test solutions. Particulars: 24 mM K+ solution, saline or isotonic, kinetic from dmso stock.
For the compound `CCCCCc1cc(O)c2c(c1)OC(C)(C)[C@@H]1CCC(C)=C[C@@H]21` [THC, tetrahydrocannabinol, reference compound], the solubility – broadly, the dissolved amount per volume that the medium holds – amounted to 10 µM (≈ 3.14 µg/mL).

The same data set, now with this note: CB1 dose-response experiment; excluded from analysis.
Consider `CC(C)=CCC[C@](C)(O)C1CC=C(C)CC1` (stereo partly drawn) [bisabolol], for which the “solubility relative to the tested concentration range” value was “below the tested concentration range”. `C/C1=C\CC/C(C)=C/CC(C)(C)/C=C/C1` [humulene]: the “solubility relative to the tested concentration range” value was “below the tested concentration range”. As for `C=CC(C)(O)CCC=C(C)CCC=C(C)C` (stereo not drawn) [nerolidol], the “solubility relative to the tested concentration range” value is on record as “below the tested concentration range”. The same measure, in the same setting: under `C=C1CC/C=C(\C)CC[C@@H]2[C@@H]1CC2(C)C` [β-caryophyllene] stands “below the tested concentration range”.
